Earlier results in patent publication US11553715B2, “Synthesis and formulation of lignin derived compounds as treatment of plant diseases” (University of Kentucky Research Foundation, priority 2019, dated 2023).

Compound: COc1cc(C=O)ccc1O [Vanillin]
- antimicrobial concentration as a food preservative (yeast): 0.76 mg/mL
- antimicrobial concentration as a food preservative (bacteria): 1.5 mg/mL
